The values below come from patent publication US10251394B2, “Molecules having pesticidal utility, and intermediates, compositions, and processes, related thereto” (Dow AgroSciences LLC, priority 2016, dated 2019).

The test system of test [1] is Beet Armyworm (Spodoptera exigua). As to the kind of experiment: Bioassay on Beet Armyworm (BAW), 128-well diet tray assay. The test is classed as in vivo. The following applies: Beet Armyworm, Table ABC, read-out: BAW rating. In short, it runs like this: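 Percent mortality, averaged over eight wells, was scored after five to seven days at 25° C under 14:10 light-dark. Each well's diet carried 50 μg/cm^2 of test molecule applied in acetone-water (90:10) and dried before one to five second-instar larvae were added.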

The subject of test [2] is Cabbage Looper (Trichoplusia ni). As to the kind of experiment: Bioassay on Cabbage Looper (CL), 128-well diet tray assay. The format is in vivo. The following applies: Cabbage Looper, Table ABC, read-out: CL rating. In short, it runs like this:
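Mortality after five to seven days at 25° C (14:10 photoperiod), averaged over eight wells per compound. Diet in each well carried 50 μg/cm^2 of dried test molecule and received one to five second-instar larvae.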

On to `C[C@@H](NC(=O)c1ccc(/C(F)=C/C(c2ccc(OC(F)(F)F)c(Cl)c2)C(F)(F)F)cc1C(F)(F)F)C(=O)NCC(F)(F)F` (stereo partly drawn) [F182, 4-((Z)-3-(3-Chloro-4-(trifluoromethoxy)phenyl)-1,4,4,4-tetrafluorobut-1-en-1-yl)-N—((R)-1-oxo-1-((2,2,2-trifluoroethyl)amino)propan-2-yl)-2-(trifluoromethyl)benzamide], for which the pest or weed control at 50 µg/cm2 in test [1] and in test [2] was 50 to 100% in each case.

Turning to `C[C@@H](NC(=O)c1ccc(/C(F)=C/C(c2ccc(Cl)c(OC(F)(F)F)c2)C(F)(F)F)cc1C(F)(F)F)C(=O)NCC(F)(F)F` (stereo partly drawn) [F183, 4-((Z)-3-(4-Chloro-3-(trifluoromethoxy)phenyl)-1,4,4,4-tetrafluorobut-1-en-1-yl)-N—((R)-1-oxo-1-((2,2,2-trifluoroethyl)amino)propan-2-yl)-2-(trifluoromethyl)benzamide], the pest or weed control at 50 µg/cm2 in test [1] and in test [2] was 50 to 100% each time.

As for `C=Cc1cc(C(/C=C(\F)c2ccc(C(=O)N[C@H](C)C(=O)NCC(F)(F)F)c(C(F)(F)F)c2)C(F)(F)F)cc(C=C)c1Cl` (stereo partly drawn) [F184, 4-((Z)-3-(4-Chloro-3,5-divinylphenyl)-1,4,4,4-tetrafluorobut-1-en-1-yl)-N—((R)-1-oxo-1-((2,2,2-trifluoroethyl)amino)propan-2-yl)-2-(trifluoromethyl)benzamide], the pest or weed control at 50 µg/cm2 in test [1] and in test [2] was 50 to 100% in each case.

Regarding `C[C@@H](NC(=O)c1ccc(/C(F)=C/C(c2cc(Cl)c(Cl)c(Br)c2)C(F)(F)F)cc1C(F)(F)F)C(=O)NCC(F)(F)F` (stereo partly drawn) [F185, 4-((Z)-3-(3-Bromo-4,5-dichlorophenyl)-1,4,4,4-tetrafluorobut-1-en-1-yl)-N—((R)-1-oxo-1-((2,2,2-trifluoroethyl)amino)propan-2-yl)-2-(trifluoromethyl)benzamide], the pest or weed control at 50 µg/cm2 in test [1] and in test [2] was 50 to 100% in each case.

`C=Cc1cc(C(/C=C(\F)c2ccc(C(=O)N[C@H](C)C(=O)NCC(F)(F)F)c(C(F)(F)F)c2)C(F)(F)F)cc(Cl)c1Cl` (stereo partly drawn) [F186, 4-((Z)-3-(3,4-dichloro-5-vinylphenyl)-1,4,4,4-tetrafluorobut-1-en-1-yl)-N—((R)-1-oxo-1-((2,2,2-trifluoroethyl)amino)propan-2-yl)-2-(trifluoromethyl)benzamide]: the pest or weed control at 50 µg/cm2 in test [1] and in test [2] was 50 to 100% throughout.

As to `C=C(C)c1cc(C(/C=C(\F)c2ccc(C(=O)N[C@H](C)C(=O)NCC(F)(F)F)c(C(F)(F)F)c2)C(F)(F)F)cc(Cl)c1Cl` (stereo partly drawn) [F187, 4-((Z)-3-(3,4-Dichloro-5-(prop-1-en-2-yl)phenyl)-1,4,4,4-tetrafluoro-but-1-en-1-yl)-N—((R)-1-oxo-1-((2,2,2-trifluoroethyl)amino)propan-2-yl)-2-(trifluoromethyl)benzamide], the pest or weed control at 50 µg/cm2 in test [1] and in test [2] was 50 to 100% in each case.

As for `C/C=C/c1cc(C(/C=C(\F)c2ccc(C(=O)N[C@H](C)C(=O)NCC(F)(F)F)c(C(F)(F)F)c2)C(F)(F)F)cc(Cl)c1Cl` (stereo partly drawn) [F188, 4-((Z)-3-(3,4-Dichloro-5-((E)-prop-1-en-1-yl)phenyl)-1,4,4,4-tetrafluorobut-1-en-1-yl)-N—((R)-1-oxo-1-((2,2,2-trifluoroethyl)amino)propan-2-yl)-2-(trifluoromethyl)benzamide], the pest or weed control at 50 µg/cm2 in test [1] and in test [2] was 50 to 100% each time.

In the case of `C#Cc1cc(C(/C=C(\F)c2ccc(C(=O)N[C@H](C)C(=O)NCC(F)(F)F)c(C(F)(F)F)c2)C(F)(F)F)cc(Cl)c1Cl` (stereo partly drawn) [F189, 4-((Z)-3-(3,4-Dichloro-5-ethynylphenyl)-1,4,4,4-tetrafluorobut-1-en-1-yl)-N—((R)-1-oxo-1-((2,2,2-trifluoroethyl)amino)propan-2-yl)-2-(trifluoromethyl)benzamide], the pest or weed control at 50 µg/cm2 in test [1] and in test [2] was 50 to 100% in each case.

On to `CC#Cc1cc(C(/C=C(\F)c2ccc(C(=O)N[C@H](C)C(=O)NCC(F)(F)F)c(C(F)(F)F)c2)C(F)(F)F)cc(Cl)c1Cl` (stereo partly drawn) [F190, 4-((Z)-3-(3,4-Dichloro-5-(prop-1-yn-1-yl)phenyl)-1,4,4,4-tetrafluorobut-1-en-1-yl)-N—((R)-1-oxo-1-((2,2,2-trifluoroethyl)amino)propan-2-yl)-2-(trifluoromethyl)benzamide], for which the pest or weed control at 50 µg/cm2 in test [1] and in test [2] was 50 to 100% each time.

`C[C@@H](NC(=O)c1ccc(/C(F)=C/C(c2cc(Cl)c(Cl)c(C#CC(C)(C)C)c2)C(F)(F)F)cc1C(F)(F)F)C(=O)NCC(F)(F)F` (stereo partly drawn) [F191, 4-((Z)-3-(3,4-Dichloro-5-(3,3-dimethylbut-1-yn-1-yl)phenyl)-1,4,4,4-tetrafluorobut-1-en-1-yl)-N—((R)-1-oxo-1-((2,2,2-trifluoroethyl)amino)propan-2-yl)-2-(trifluoromethyl)benzamide]: the pest or weed control at 50 µg/cm2 in test [1] and in test [2] was 50 to 100% in each case.

For `C[C@@H](NC(=O)c1ccc(/C(F)=C/C(c2cc(Cl)c(Cl)c(C#N)c2)C(F)(F)F)cc1C(F)(F)F)C(=O)NCC(F)(F)F` (stereo partly drawn) [F192, 4-((Z)-3-(3,4-Dichloro-5-cyanophenyl)-1,4,4,4-tetrafluorobut-1-en-1-yl)-N—((R)-1-oxo-1-((2,2,2-trifluoroethyl)amino)propan-2-yl)-2-(trifluoromethyl)benzamide], the pest or weed control at 50 µg/cm2 in test [1] and in test [2] was 50 to 100% throughout.

For the compound `C[C@@H](NC(=O)c1ccc(/C(F)=C/C(c2cc(Cl)c(Cl)c(C(C)(F)F)c2)C(F)(F)F)cc1C(F)(F)F)C(=O)NCC(F)(F)F` (stereo partly drawn) [F193, 4-((Z)-3-(3,4-Dichloro-5-(1,1-difluoroethyl)phenyl)-1,4,4,4-tetrafluorobut-1-en-1-yl)-N—((R)-1-oxo-1-((2,2,2-trifluoroethyl)amino)propan-2-yl)-2-(trifluoromethyl)benzamide], the pest or weed control at 50 µg/cm2 in test [1] and in test [2] was 50 to 100% each time.

For the compound `C[C@@H](NC(=O)c1ccc(/C(F)=C/C(c2cc(Cl)c(Cl)c(CF)c2)C(F)(F)F)cc1C(F)(F)F)C(=O)NCC(F)(F)F` (stereo partly drawn) [F194], the pest or weed control at 50 µg/cm2 in test [1] and in test [2] was 50 to 100% each time.

As to `C[C@@H](NC(=O)c1ccc(/C(F)=C/C(c2cc(Cl)c(Cl)c(C(F)F)c2)C(F)(F)F)cc1C(F)(F)F)C(=O)NCC(F)(F)F` (stereo partly drawn) [F195, 4-((Z)-3-(3,4-dichloro-5-(difluoromethyl)phenyl)-1,4,4,4-tetrafluorobut-1-en-1-yl)-N—((R)-1-oxo-1-((2,2,2-trifluoroethyl)amino)propan-2-yl)-2-(trifluoromethyl)benzamide], the pest or weed control at 50 µg/cm2 in test [1] and in test [2] was 50 to 100% in each case.

As to `C=Cc1cc(C(/C=C(\F)c2ccc(C(=O)N[C@@H]3CON(CC(F)(F)F)C3=O)c(C(F)(F)F)c2)C(F)(F)F)cc(Cl)c1Cl` (stereo partly drawn) [F196, 4-((Z)-3-(3,4-Dichloro-5-vinylphenyl)-1,4,4,4-tetrafluorobut-1-en-1-yl)-N—((R)-3-oxo-2-(2,2,2-trifluoroethyl)isoxazolidin-4-yl)-2-(trifluoromethyl)benzamide], the pest or weed control at 50 µg/cm2 in test [1] and in test [2] was 50 to 100% each time.
